The values that follow come from patent publication US20030158213A1, “Xanthine oxidase inhibition as a strategy to alleviate oxidative impairment of vascular function” (priority 2001, published 2003).

“Also recorded” adds a separate entry of the source. Read-outs that look alike come from different tables or passages of the source.

The test system of data set [1] is aortic rings. Put plainly: Acetylcholine relaxation of aortic rings pre-incubated with XO. In kind it is cell-based. Particulars: rings incubated with XO 10 mU/ml 1 hr, washed; xanthine in buffer; heparin 10-1000 U/ml, allopurinol 10-250 μM. On the procedure: (§1) Increased cell-associated XO can impair endothelial-dependent vascular signaling. When isolated aortic ring segments are incubated with XO for 1 hr and then extensively washed to remove unbound XO, endothelial-dependent relaxations in response to acetylcholine are diminished when the XO substrate xanthine is present in the buffer (FIG. 2A). Inhibition of endothelial-dependent relaxation is abrogated by post-washing treatment of the aortic rings with the XO inhibitor allopurinol, as well as heparin, which inhibits and/or competes for XO binding to endothelial cell GAGs. This ex vivo model of vascular dysfunction reinforces observations made in a model of atherosclerosis. […] Importantly, there appears to be sufficient substrate in the vasculature for XO to catalyze elevated oxidant production, without the need for exogenously added purine.

The conditions of data set [2]: at pharmacologic concentrations; cited from earlier work.
Data set [3] relates to myocardial ischemia-reperfusion injury. The conditions noted are these: rabbit; cited from earlier work.
Data set [4] shares this test system. Particulars: clinical; cited from earlier work.
In the next data set the test system is guanylate cyclase. Put plainly: Ionomycin-induced .NO-dependent cGMP formation, XO-exposed endothelial cells with smooth muscle cells. Type of data set: cell-based, bovine. Particulars: BAEC exposed to XO 10 mU/ml 3 hr, washed; xanthine 100 μM, ionomycin 6.7 μM, 15 min; cGMP by ELISA. On the procedure: Endothelial cells were cultured on Transwell filters and exposed to XO (10 mU/ml) for 3 hr and washed extensively. Filters were then transferred to dishes containing smooth muscle cells and incubated with xanthine (100 μM) and ionomycin (6.7 μM)±allopurinol for 15 min. cGMP was then determined by ELISA. (n=3);
Bovine aortic endothelial cell (BAEC) monolayers having bound and potentially internalized XO manifested an impaired ability to support ionomycin-induced, .NO-dependent cGMP formation by adjacent smooth muscle cells.
Background: An ELISA detects its analyte on a solid surface through an enzyme-linked reagent.

Data set [5] relates to aortic rings. The experiment in a line: Acetylcholine relaxation of aortic rings from cholesterol-fed rabbits. Type of data set: cell-based, rabbit. The conditions noted are these: rings from rabbits on 1% cholesterol diet (6 weeks); heparin 1000 U/ml, allopurinol 100 μM. On the procedure:
as §1

In another data set the test system is aorta of SCD mice. Put plainly: Vessel O2.- production by coelenterazine-enhanced chemiluminescence. In kind it is cell-based, mouse. Particulars: for rates of O2.— production enhanced by xanthine: SCD mouse vessels pretreated, CuZn SOD 30 U/ml, allopurinol 100 μM, BOF-4272 25 μM. The source says:
Values represent mean±SD (n=4). Statistical analysis was by two-way ANOVA with the Duncan's post hoc test. *, p<0.05 compared to control. +, p<0.05 compared to xanthine-treated sickle cell vessels. **, […] compared to control and all treated vessel groups.

The subject of data set [6] is vessel rings prepared from sickle cell mice. The experiment in a line: Relaxation of vessel rings from sickle cell mice to NO-dependent stimuli. Type of data set: cell-based, mouse. The conditions noted are these: MnTE-2-PyP 50 μM, allopurinol 50 μM.
Data set [7] has as its system HbA and HbS red cells. Put plainly: Red cell O2.- release by cytochrome c reduction. In kind it is cell-based, human. On the procedure: If red blood cells from sickle cell patients produce increased amounts of O2. and H2O2 as compared to red blood cells from healthy donors, then local depletion of .NO might be explained on this basis. […] The mean Hb content of HbA and HbS red cell preparations was similar. DMNQ (100 μM) was added to stimulate red cell O2.— production.
Blood was collected from healthy HbA adult volunteers and homozygous HbS patients in anticoagulated (EDTA) vacu-containers. All individuals were evaluated for cytochrome b5 reductatse and glucose-6-phosphate dehydorgenase activity and none were reported deficient. […] Packed RBCs were diluted to a hematocrit of 2.5% (vol/vol) hemoglobin concentrations as determined with Drabkin's reagent at 540 nm, and rates of O2. release over 2 hours were quanitifed spectrophotometrically by CuZn SOD-inhibitable (100 units/ml, equivalent to approximately 33 ug/ml SOD) reduction of cytochrome c (50 uM) at 550 nm(εM=21 mM^−1cm^−1). In some experiments, O2. release was measured in cells pretreated with DMNQ (Oxis, 100 uM), 3-hydroxy-1,2-dimethyl-4-pyridone (HDP, Aldrich, 0.5 mM), and 4,4-diisothiocyano-2,2 disulfonic acid stilbene (DIDS, Sigma, 200 uM). Possible Hb intereference in determination of rates of cytochrome c reduction was evaluated by performing a singular value decomposition analysis (Matlab, Mathworks, Natick, Mass.).

The subject of data set [8] is HbA and HbS red cells. Put plainly: Red cell nitric oxide consumption. Type of data set: cell-based, human. Particulars: extracellular CuZn SOD 100 U ml^−1; DMNQ 100 μM. The source says:
Values represent mean±SEM (n=4 to 14). Statistical analysis was by two-way ANOVA with Tukey post hoc test. *, p<0.05 compared with basal;
Accepting that *NO reacts at almost diffusion-limited rates with O2.— (25), the relative rates of red cell .NO consumption was utilized to probe for differences in both intra-and extracellular O2.— (and possibly LOO—) production by HbA and HbS red cells. […] The presence of endogenous lipid hydroperoxides was undetectable in both HbA and HbS RBC membranes.

A further data set relates to eNOS. Put plainly: NOS activity in lysates of BAEC after oxidant stress. Particulars: 2 hr, mean ± SEM, n = 3. Type of data set: cell-based, bovine. An excerpt: Also, XO can serve as a source of H2O2 that in turn will support the oxidative reactions of myeloperoxidase (NO consumption and the generation of chlorinating, nitrating and oxidizing species). Another potential mechanism explaining XO inhibition of endothelial-dependent relaxation and cGMP formation may be oxidant-induced changes in the expression and/or activity of eNOS, especially during more chronic exposure to reactive oxygen species. Bovine aortic endothelial cells (BAEC) were exposed to the redox-cycling quinone 2,3-dimethoxynapthoquinone (DMNQ), which generates controllable and low rates of O2.— and H2O2. Following treatment with DMNQ for 2 hr, the capacity of endothelial cell lysates to oxidize arginine to citrulline was used to indicate eNOS activity. Additional cells were incubated with 10 mU/ml XO for 1 hr, extensively washed and 100 μM xanthine was added during a 1 hr post-incubation period.

For data set [9], the system named is cultured endothelial cells. The conditions noted are these: heparin on bound XO; enzymes as pretreatment of cells; cited from earlier work.
For the next data set, the target named is T1, xanthine oxidase (Homo sapiens, UniProt P47989).
T1 construct: host or cells: forearm blood vessels, in vivo infusion of oxypurinol
T1 sequence (P47989 whole entry, the tested form may be a part): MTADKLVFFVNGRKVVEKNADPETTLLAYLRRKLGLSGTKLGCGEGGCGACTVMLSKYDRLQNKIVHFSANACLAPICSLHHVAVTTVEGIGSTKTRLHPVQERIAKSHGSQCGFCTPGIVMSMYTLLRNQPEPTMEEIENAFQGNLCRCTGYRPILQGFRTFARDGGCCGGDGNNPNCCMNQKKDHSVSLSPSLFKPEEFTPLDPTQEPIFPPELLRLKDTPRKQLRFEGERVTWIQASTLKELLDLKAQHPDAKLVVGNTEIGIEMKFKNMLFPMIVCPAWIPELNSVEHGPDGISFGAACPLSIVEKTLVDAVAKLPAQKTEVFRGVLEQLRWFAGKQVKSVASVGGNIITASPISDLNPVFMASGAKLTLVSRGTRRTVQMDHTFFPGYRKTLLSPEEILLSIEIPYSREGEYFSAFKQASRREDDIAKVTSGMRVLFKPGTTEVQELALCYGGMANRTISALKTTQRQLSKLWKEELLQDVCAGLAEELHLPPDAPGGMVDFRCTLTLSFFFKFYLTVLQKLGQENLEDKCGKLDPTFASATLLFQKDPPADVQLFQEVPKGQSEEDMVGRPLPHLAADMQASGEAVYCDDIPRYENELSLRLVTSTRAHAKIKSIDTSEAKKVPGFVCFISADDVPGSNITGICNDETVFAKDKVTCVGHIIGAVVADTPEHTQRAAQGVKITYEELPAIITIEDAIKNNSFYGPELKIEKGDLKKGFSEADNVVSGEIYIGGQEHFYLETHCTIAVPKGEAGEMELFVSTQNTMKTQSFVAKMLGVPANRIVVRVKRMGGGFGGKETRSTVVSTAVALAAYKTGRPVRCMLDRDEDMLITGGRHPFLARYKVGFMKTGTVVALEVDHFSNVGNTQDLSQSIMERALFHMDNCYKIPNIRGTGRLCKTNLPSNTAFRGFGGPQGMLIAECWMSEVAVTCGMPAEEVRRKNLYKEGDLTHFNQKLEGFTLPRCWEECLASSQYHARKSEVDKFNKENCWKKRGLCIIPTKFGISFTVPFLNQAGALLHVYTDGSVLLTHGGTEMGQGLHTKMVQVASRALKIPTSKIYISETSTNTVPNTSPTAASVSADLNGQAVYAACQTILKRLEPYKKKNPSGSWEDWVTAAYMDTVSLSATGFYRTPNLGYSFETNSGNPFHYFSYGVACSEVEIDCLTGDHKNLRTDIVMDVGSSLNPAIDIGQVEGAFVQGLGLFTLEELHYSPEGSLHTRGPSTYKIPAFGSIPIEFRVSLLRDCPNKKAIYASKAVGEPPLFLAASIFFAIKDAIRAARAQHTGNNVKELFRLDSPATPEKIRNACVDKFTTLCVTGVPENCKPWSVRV
The conditions noted are these: intravascular concentration of 10 μg/ml; cited from earlier work.

The conditions of data set [10]: compared to allopurinol; cited from earlier work.

For `Oc1ncnc2[nH]ncc12` [allopurinol], the “reversal of XO-induced reduction of vasodilation in response to acetylcholine” value in the data set on aortic rings [1] was “reversible; also recorded: abrogated”. Also, in [2], the direct antioxidant properties result is “no direct antioxidant properties”. Besides, the myocardial ischemia-reperfusion injury entry in data set [3] and in data set [4] was “attenuated” each time. The “reversal of XO inhibition of .NO-mediated cGMP formation” value in the data set on guanylate cyclase was “reversible”. The “restoration of endothelial-dependent relaxation” value with aortic rings [5] is listed as “partially restored endothelial-dependent relaxation; also recorded: significantly reversed”. In addition, the “rates of O2.— production enhanced by xanthine” value (“rates … by xanthine” below) with aorta of SCD mice is reported as “returned to basal rates”. Also, in [6], the “vessel relaxation in response to NO-dependent stimuli” value was “reversal of impaired vessel relaxation”.
In the case of `Cc1c(O)c(=O)ccn1C` [HDP, 3-hydroxy-1,2-dimethyl-4-pyridone], the “decrease in O2.—” value with HbA and HbS red cells [7] (preincubation with HDP 0.5 mM, 150 mm Hg O2, pH 7.4) is recorded as ~36%.
As for `COC1=C(OC)C(=O)c2ccccc2C1=O` [DMNQ, 2,3-dimethoxynapthoquinone], the “rate of .NO consumption” value in the data set with HbA and HbS red cells [8] is “significantly increased rates of red cell .NO consumption”. The NOS activity with eNOS (DMNQ 5 μM) came out at 0.75 ± 0.09 pmol/min/mg prot; in the data set on eNOS (DMNQ 50 μM) it was 0.49 ± 0.60 pmol/min/mg prot. In the data set with aorta of SCD mice (DMNQ 100 μM, positive control, both control and SCD mouse vessels), the “rates of O2. production” value is “significantly enhanced rates of O2. production”.
For `COc1cc(-c2cnn3c(=O)nc[n-]c23)ccc1[S+]([O-])c1ccccc1.[Na+]` (stereo not shown) [BOF-4272], in the data set on aorta of SCD mice, the “rates … by xanthine” value is recorded as “returned to basal rates”.
Consider “CuZn SOD: CuZn superoxide dismutase, O2.- scavenging enzyme”, for which the “rate of .NO consumption” value in the data set with HbA and HbS red cells [8] was “did not impact on the rate of .NO consumption”. In the data set on aorta of SCD mice, the “rates … by xanthine” value is recorded as “returned to basal rates”.
As to heparin, the “effect on XO binding to endothelium” value in data set [9] is “partially displaced”. For the same compound, in the data set with aortic rings [1], the “reversal of XO-induced reduction of vasodilation in response to acetylcholine” value is recorded as “reversible; also recorded: abrogated”. In addition, the “restoration of endothelial-dependent relaxation” value in the data set on aortic rings [5] was “partially restored endothelial-dependent relaxation; also recorded: significantly reversed”.
`O=S(=O)(O)c1cc(N=C=S)ccc1C=Cc1ccc(N=C=S)cc1S(=O)(=O)O` [DDS, 4,4-diisothiocyano-2,2 disulfonic acid stilbene]: in the data set on HbA and HbS red cells [7] (pretreated with 200 μM, both HbA and HbS red cells), the “decrease in rates of cytochrome c reduction” value is ~35%.
In the case of `O=c1[nH]c(=O)c2c[nH]nc2[nH]1` [Oxypurinol], the “inhibition of xanthine oxidase activity in the forearm blood vessels” value at xanthine oxidase was “greater than 90%”. Moreover, the water solubility result in [10] is “increased water solubility as compared to allopurinol”.
